What all share (type): in vivo
The subject of data set [1] is Beet Armyworm (Spodoptera exigua) ("BAW"). The data set is described as follows: Bioassay on beet armyworm (BAW), 128-well diet tray assay. As to conditions: for mortality at 50 µg/cm2: 168 h, 50 μg/cm^2 on artificial diet, second instar BAW larvae, 25° C., five to seven days, average of eight wells, read-out: BAW % Control (or Mortality) rating; for pest or weed control at 50 µg/cm2: Table ABC (FB), activity rating class, read-out: BAW (Biological Results, Insect species). In outline: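 Percent mortality, averaged across eight wells, was read after five to seven days at 25° C. under 14:10 light-dark. Each well held one to five second-instar larvae on artificial diet that had been treated with 50 μg/cm^2 compound in 90:10 acetone-water and dried.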

The subject of data set [2] is Cabbage Looper (Trichoplusia ni) ("CL"). Briefly: Bioassay on cabbage looper (CL), 128-well diet tray assay. The conditions noted are these: for mortality at 50 µg/cm2: 168 h, 50 μg/cm^2 on artificial diet, second instar CL larvae, 25° C., five to seven days, average of eight wells, read-out: CL % Control (or Mortality) rating; for pest or weed control at 50 µg/cm2: Table ABC (FB), activity rating class, read-out: CL (Biological Results, Insect species). A digest of the protocol:
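Percent mortality, averaged across eight replicate wells, was read after five to seven days at 25 °C under a 14:10 photoperiod. Each well held one to five second-instar T. ni on diet carrying a dried 50 μg/cm^2 dose applied in acetone-water 90:10.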

Data set [3] relates to Yellow Fever Mosquito "YFM" (Aedes aegypti). As to conditions: for YFM % Control (or Mortality) rating: about 1 day-old larvae, 96-well plate, room temperature, 3 days; for YFM (Biological Results, Insect species): Table ABC (FB), activity rating class. The method, then: Certain molecules disclosed in this document were tested against YFM using procedures described in the following paragraph. In the reporting of the results, the “YFM Rating Table” was used (See Table Section).
Master plates containing 400 μg of a molecule dissolved in 100 μL of dimethyl sulfoxide (DMSO) (equivalent to a 4000 ppm solution) are used. A master plate of assembled molecules contains 15 μL per well. To this plate, 135 μL of a 90:10 wateracetone mixture is added to each well. A robot (Biomek® NXP Laboratory Automation Workstation) is programmed to dispense 15 μL aspirations from the master plate into an empty 96-well shallow plate (“daughter” plate). There are 6 reps (“daughter” plates) created per master. The created daughter plates are then immediately infested with YFM larvae.
The day before plates are to be treated, mosquito eggs are placed in Millipore water containing liver powder to begin hatching (4 g. into 400 mL). After the daughter plates are created using the robot, they are infested with 220 μL of the liver powder/larval mosquito mixture (about 1 day-old larvae). After plates are infested with mosquito larvae, a non-evaporative lid is used to cover the plate to reduce drying. Plates are held at room temperature for 3 days prior to grading. After 3 days, each well is observed and scored based on mortality.

In general, mortality refers to the share of the test organisms that died.

With `CC(C)c1cc(F)ccc1N1C(=O)CS/C1=N\C(=O)NCCCCc1ccc(-c2ncn(-c3ccc(OC(F)(F)F)cc3)n2)cc1` [P155. P1162, (Z)-1-(3-(4-fluoro-2-isopropylphenyl)-4-oxothiazolidin-2-ylidene)-3-(4-(4-(1-(4-(trifluoromethoxy)phenyl)-1H-1,2,4-triazol-3-yl)phenyl)butyl)urea], the mortality at 50 µg/cm2 in data set [1] and in data set [2] was 50 to 100% throughout. Besides, the “YFM % Control (or Mortality) rating” value in data set [3] was “A (80-100)”.

`COc1ccc(N2/C(=N/C(=O)NCCc3ccc(-c4ncn(-c5ccc(OC(F)(F)F)cc5)n4)cc3)SCC2C)c(C)c1` (stereo not drawn) [FB58, (Z)-1-(3-(4-methoxy-2-methylphenyl)-4-methylthiazolidin-2-ylidene)-3-(4-(1-(4-(trifluoromethoxy)phenyl)-1H-1,2,4-triazol-3-yl)phenethyl)urea]: the pest or weed control at 50 µg/cm2 in data set [1] and in data set [2] was 50 to 100% throughout. Moreover, the “YFM (Biological Results, Insect species)” value in data set [3] is recorded as “A (80-100)”.

Turning to `Cc1ccc(C(C)C)c(N2C(=O)CS/C2=N\C(=O)NCC(C)(C)c2ccc(-c3ncn(-c4ccc(OC(F)(F)F)cc4)n3)cc2)c1` [FB53, (Z)-1-(3-(2-isopropyl-5-methylphenyl)-4-oxothiazolidin-2-ylidene)-3-(2-methyl-2-(4-(1-(4-(trifluoromethoxy)phenyl)-1H-1,2,4-triazol-3-yl)phenyl)propyl)urea], the pest or weed control at 50 µg/cm2 in data set [1] and in data set [2] was 50 to 100% in each case. In addition, in data set [3], the “YFM (Biological Results, Insect species)” value is recorded as “B (More than 0-Less than 80)”.

With `COc1cc(C)c(N2C(=O)CS/C2=N\C(=O)NCCc2ccc(-c3ncn(-c4ccc(OC(F)(F)F)cc4)n3)cc2)c(C)c1` [P47, (Z)-1-(3-(4-methoxy-2,6-dimethylphenyl)-4-oxothiazolidin-2-ylidene)-3-(4-(1-(4-(trifluoromethoxy)phenyl)-1H-1,2,4-triazol-3-yl)phenethyl)urea], the mortality at 50 µg/cm2 in data set [1] and in data set [2] was 50 to 100% in each case. In data set [3], the “YFM % Control (or Mortality) rating” value is “A (80-100)”.

For `Cc1ccc(C(C)C)c(N2C(=O)CS/C2=N\C(=O)NC(C)C(C)c2ccc(-c3ncn(-c4ccc(OC(F)(F)F)cc4)n3)cc2)c1` (stereo not drawn) [P66, P353, (Z)-1-(3-(2-isopropyl-5-methylphenyl)-4-oxothiazolidin-2-ylidene)-3-(3-(4-(1-(4-(trifluoromethoxy)phenyl)-1H-1,2,4-triazol-3-yl)phenyl)butan-2-yl)urea], the mortality at 50 µg/cm2 in data set [1] and in data set [2] was 50 to 100% in each case. Besides, the “YFM % Control (or Mortality) rating” value in data set [3] is on record as “A (80-100)”.

As for `CC(C)c1ccc(Cl)cc1N1C(=O)CS/C1=N\C(=O)NCCc1ccc(-c2ncn(-c3ccc(OC(F)(F)F)cc3)n2)cc1` [FB40, (Z)-1-(3-(5-chloro-2-isopropylphenyl)-4-oxothiazolidin-2-ylidene)-3-(4-(1-(4-(trifluoromethoxy)phenyl)-1H-1,2,4-triazol-3-yl)phenethyl)urea], the pest or weed control at 50 µg/cm2 in data set [1] and in data set [2] was 50 to 100% throughout. Besides, the “YFM (Biological Results, Insect species)” value in data set [3] was “A (80-100)”.

Take `Cc1ccc(C(C)C)c(N2C(=O)CCS/C2=N\C(=O)NCCc2ccc(-c3ncn(-c4ccc(OC(F)(F)F)cc4)n3)cc2)c1` [FB41]: the pest or weed control at 50 µg/cm2 in data set [1] and in data set [2] was 50 to 100% each time. Further, the “YFM (Biological Results, Insect species)” value in data set [3] is recorded as “A (80-100)”.

Consider `CCc1cccc(C)c1N1C(=O)CS/C1=N\C(=O)NCCc1ccc(-c2ncn(-c3ccc(OC(F)(F)F)cc3)n2)cc1` [P50], for which the mortality at 50 µg/cm2 in data set [1] and in data set [2] was 50 to 100% throughout. The “YFM % Control (or Mortality) rating” value in data set [3] was “A (80-100)”.

For `Cc1ccc(N2C(=O)CS/C2=N\C(=O)NCCCCc2ccc(-c3ncn(-c4ccc(OC(F)(F)F)cc4)n3)cc2)c(C(C)C)c1` [P154, (Z)-1-(3-(2-isopropyl-4-methylphenyl)-4-oxothiazolidin-2-ylidene)-3-(4-(4-(1-(4-(trifluoromethoxy)phenyl)-1H-1,2,4-triazol-3-yl)phenyl)butyl)urea], the mortality at 50 µg/cm2 in data set [1] and in data set [2] was 50 to 100% each time. In addition, in data set [3], the “YFM % Control (or Mortality) rating” value was “B (More than 0-Less than 80)”.

`CC(C)(C)c1ccccc1N1C(=O)CS/C1=N\C(=O)NCCc1ccc(-c2ncn(-c3ccc(OC(F)(F)F)cc3)n2)cc1` [P30, (Z)-1-(3-(2-(tert-butyl)phenyl)-4-oxothiazolidin-2-ylidene)-3-(4-(1-(4-(trifluoromethoxy)phenyl)-1H-1,2,4-triazol-3-yl)phenethyl)urea]: the mortality at 50 µg/cm2 in data set [1] and in data set [2] was 50 to 100% each time. The “YFM % Control (or Mortality) rating” value in data set [3] was “A (80-100)”.

As to `CCc1cccc(C)c1N1C(=O)CS/C1=N\C(=O)NC(C)Cc1ccc(-c2ncn(-c3ccc(OC(F)(F)F)cc3)n2)cc1` (stereo not drawn) [P42, (Z)-1-(3-(2-ethyl-1-methylphenyl)-4-oxothiazolidin-2-ylidene)-3-(1-(4-(1-(4-(trifluoromethoxy)phenyl)-1H-1,2,4-triazol-3-yl)phenyl)propan-2-yl)urea], the mortality at 50 µg/cm2 in data set [1] and in data set [2] was 50 to 100% throughout. Also, the “YFM % Control (or Mortality) rating” value in data set [3] is given as “A (80-100)”.

Regarding `COc1ccc(C(C)C)c(N2C(=O)CS/C2=N\C(=O)NCCCCc2ccc(-c3ncn(-c4ccc(OC(F)(F)F)cc4)n3)cc2)c1` [P156, P682, (Z)-1-(3-(2-isopropyl-5-methoxyphenyl)-4-oxothiazolidin-2-ylidene)-3-(4-(4-(1-(4-(trifluoromethoxy)phenyl)-1H-1,2,4-triazol-3-yl)phenyl)butyl)urea], the mortality at 50 µg/cm2 in data set [1] and in data set [2] was 50 to 100% each time. Besides, in data set [3], the “YFM % Control (or Mortality) rating” value is recorded as “A (80-100)”.

For `Cc1ccc(C(C)C)c(N2C(=O)CS/C2=N\C(=O)NC2(Cc3ccc(-c4ncn(-c5ccc(OC(F)(F)F)cc5)n4)cc3)CC2)c1` [FB63, (Z)-1-(3-(2-isopropyl-5-methylphenyl)-4-oxothiazolidin-2-ylidene)-3-(1-(4-(1-(4-(trifluoromethoxy)phenyl)-1H-1,2,4-triazol-3-yl)benzyl)cyclopropyl)urea], the pest or weed control at 50 µg/cm2 in data set [1] and in data set [2] was 50 to 100% in each case. In addition, the “YFM (Biological Results, Insect species)” value in data set [3] was “A (80-100)”.

For the compound `CCc1cccc(C)c1N1C(=O)CS/C1=N\C(=O)NCCCCc1ccc(-c2ncn(-c3ccc(OC(F)(F)F)cc3)n2)cc1` [P153, (Z)-1-(3-(2-ethyl-6-methylphenyl)-4-oxothiazolidin-2-ylidene)-3-(4-(4-(1-(4-(trifluoromethoxy)phenyl)-1H-1,2,4-triazol-3-yl)phenyl)butyl)urea], the results for the mortality at 50 µg/cm2 in data set [1] and in data set [2] were 0% and 50 to 100%, respectively. In addition, the “YFM % Control (or Mortality) rating” value in data set [3] is “D (No activity noticed in this bioassay)”.

In the case of `Cc1ccc(C(C)C)c(N2C(=O)CS/C2=N\C(=O)N(C)CCc2ccc(-c3ncn(-c4ccc(OC(F)(F)F)cc4)n3)cc2)c1` [FB51], the pest or weed control at 50 µg/cm2 in data set [1] and in data set [2] was 50 to 100% throughout. Besides, the “YFM (Biological Results, Insect species)” value in data set [3] is recorded as “A (80-100)”.

For `Cc1ccc(C(C)C)c(N2C(=O)C(C)S/C2=N\C(=O)NCCc2ccc(-c3ncn(-c4ccc(OC(F)(F)F)cc4)n3)cc2)c1` (stereo not drawn) [P57, (Z)-1-(3-(2-isopropyl-5-methylphenyl)-5-methyl-4-oxothiazolidin-2-ylidene)-3-(4-(1-(4-(trifluoromethoxy)phenyl)-1H-1,2,4-triazol-3-yl)phenethyl)urea], the mortality at 50 µg/cm2 in data set [1] and in data set [2] was 50 to 100% each time. The “YFM % Control (or Mortality) rating” value in data set [3] is reported as “A (80-100)”.

Consider `Cc1ccc(N2C(=O)CS/C2=N\C(=O)NC(C)Cc2ccc(-c3ncn(-c4ccc(OC(F)(F)F)cc4)n3)cc2)c(C(C)C)c1` (stereo not drawn) [FB48, (Z)-1-(3-(2-isopropyl-4-methylphenyl)-4-oxothiazolidin-2-ylidene)-3-(1-(4-(1-(4-(trifluoromethoxy)phenyl)-1H-1,2,4-triazol-3-yl)phenyl)propan-2-yl)urea], for which the pest or weed control at 50 µg/cm2 in data set [1] and in data set [2] was 50 to 100% each time. The “YFM (Biological Results, Insect species)” value in data set [3] was “A (80-100)”.

As for `CCc1ccc(C)cc1N1C(=O)CS/C1=N\C(=O)NCCc1ccc(-c2ncn(-c3ccc(OC(F)(F)F)cc3)n2)cc1` [P49, (Z)-1-(3-(2-ethyl-5-methylphenyl)-4-oxothiazolidin-2-ylidene)-3-(4-(1-(4-(trifluoromethoxy)phenyl)-1H-1,2,4-triazol-3-yl)phenethyl)urea], the mortality at 50 µg/cm2 in data set [1] and in data set [2] was 50 to 100% throughout. In addition, the “YFM % Control (or Mortality) rating” value in data set [3] is recorded as “A (80-100)”.

The record behind these values is patent US9783532B2, “Molecules having certain pesticidal utilities, and intermediates, compositions, and processes related thereto” (Dow AgroSciences LLC, priority 2013, dated 2017).
